Measured values reported in patent US20090074750A1, “REGULATOR OF BASAL CELLULAR CALCIUM CONCENTRATION AND METHODS OF USE” (priority 2007, published 2009).

Tested on: HeLa cells
Assay: YFP-Stim2 localization after thapsigargin ER Ca^2+ store depletion (confocal imaging)
Type: cell-based, human
Conditions: 1 uM thapsigargin
Experimental: FIG. 3. Stim2 translocates to ER-PM junctions following ER Ca^2+ depletion. (A-C) YFP-Stim2 was expressed (˜24 hour) in HeLa (A), HUVEC, (B), and HEK293T (C) cells and confocal images were taken before and 2 minutes after 1 uM thapsigargin addition. […] HeLa cells were transfected for two days with ORAI1 siRNA and transfected for 24 hours with YFP-Stim2. Cells used in the analysis expressed YFP at 7.5 to 15 fold above background. N=10 sites.
Confocal imaging was performed using a Zeiss spinning disk confocal. Cells were imaged in extracellar buffer as described in the Ca^2+ measurements section.
We employed the YFP tagged Stim2 construct to investigate its localization and activation mechanism. Cells with submaximal YFP-Stim2 expression were selected to minimize expression artifacts. […] We observed the same YFP-Stim2 puncta formation in HeLa, Huvec, and HEK293T cell lines (FIGS. 3A-C). We then compared Stim1 and Stim2 localization by co-transfection of CFP-Stim1 and YFP-Stim2 followed by thapsigargin-induced depletion of ER Ca^2+ stores. CFP-Stim1 and YFP-Stim2 were co-localized in the same puncta that have previously been characterized as ER-PM junction sites (FIG. 3D) (Liou et al., 2005, Wu et al., 2006). […]

Q: `C/C=C(/C)C(=O)O[C@H]1C(C)=C2[C@H]([C@@H]1OC(=O)CCCCCCC)[C@@](C)(OC(C)=O)C[C@H](OC(=O)CCC)[C@@]1(O)[C@H]2OC(=O)[C@@]1(C)O` [thapsigargin] was tested. Which “YFP-Stim2 translocation to PM localized puncta” value did it give?
A: rapid translocation
